Assay results taken from patent publication EP0041644B1 (priority 1980, dated 1981).

Tests used:
B16 Melanoma [1] = assay: B16 Melanoma - Test 3 (sc trocar fragments); format: in vivo, mice
L1210 Leukemia [2] = assay: L1210 Leukemia - Test 3 (vehicle comparison); format: in vivo, mice; settings: for Effect MST % T/C / MST Days: Day 1 only
[3] = water
B16 Melanoma [4] = assay: B16 Melanoma - Test 2 (ip tumor brei); format: in vivo, mice; settings: QD +9
L1210 Leukemia [5] = assay: L1210 Leukemia - Test 2; format: in vivo, mice
Lewis Lung Carcinoma = Lewis Lung Carcinoma - Test 1 (ip, delayed therapy); format: in vivo, mice

[NH2][Pt]1([NH2])[O]C(=O)C([O-])C(=O)[O]1.[Na+] [Example 3, 2-Hydroxymalonato diammine platinum (II), sodium salt]
Effect MST %TC (B16 Melanoma [1]; 8 mg/kg/inj ip, qd 1→9): 102 %TC | MST Days (B16 Melanoma [1]; 8 mg/kg/inj ip, qd 1→9): 31.0 days | Effect MST %TC (B16 Melanoma [1]; 12 mg/kg/inj ip, qd 1→9): 92 %TC | MST Days (B16 Melanoma [1]; 12 mg/kg/inj ip, qd 1→9): 28.0 days | Effect MST %TC (B16 Melanoma [1]; 16 mg/kg/inj ip, qd 1→9): 125 %TC | MST Days (B16 Melanoma [1]; 16 mg/kg/inj ip, qd 1→9): 38.0 days | Effect MST %TC (B16 Melanoma [1]; 20 mg/kg/inj iv, d.1, 5&9): 93 %TC | MST Days (B16 Melanoma [1]; 20 mg/kg/inj iv, d.1, 5&9): 28.5 days | Effect MST %TC (B16 Melanoma [1]; 24 mg/kg/inj ip, qd 1→9): TOX | MST Days (B16 Melanoma [1]; 24 mg/kg/inj ip, qd 1→9): TOX | Effect MST %TC (B16 Melanoma [1]; 40 mg/kg/inj iv, d.1, 5&9): 108 %TC | MST Days (B16 Melanoma [1]; 40 mg/kg/inj iv, d.1, 5&9): 33.0 days | Effect MST %TC (B16 Melanoma [1]; 60 mg/kg/inj iv, d.1, 5&9): 108 %TC | MST Days (B16 Melanoma [1]; 60 mg/kg/inj iv, d.1, 5&9): 33.0 days | Effect MST %TC (B16 Melanoma [1]; 80 mg/kg/inj iv, d.1, 5&9): TOX | MST Days (B16 Melanoma [1]; 80 mg/kg/inj iv, d.1, 5&9): TOX | Effect MST %TC (B16 Melanoma [1]; 100 mg/kg/inj iv, d.1, 5&9): TOX | MST Days (B16 Melanoma [1]; 100 mg/kg/inj iv, d.1, 5&9): TOX | T/C (B16 Melanoma [1]; given ip, sc-implanted B16 melanoma): 125% | maximum T/C (B16 Melanoma [1]; given iv, sc-implanted B16 melanoma): not active | Effect MST % T/C (L1210 Leukemia [2]; 10 mg/kg ip, vehicle H2O): 114 % T/C | MST Days (L1210 Leukemia [2]; 10 mg/kg ip, vehicle H2O): 8.0 days | Effect MST % T/C (L1210 Leukemia [2]; 10 mg/kg ip, vehicle Saline): 100 % T/C | MST Days (L1210 Leukemia [2]; 10 mg/kg ip, vehicle Saline): 7.0 days | Effect MST % T/C (L1210 Leukemia [2]; 20 mg/kg ip, vehicle H2O): 143 % T/C | MST Days (L1210 Leukemia [2]; 20 mg/kg ip, vehicle H2O): 10.0 days | Effect MST % T/C (L1210 Leukemia [2]; 20 mg/kg ip, vehicle Saline): 100 % T/C | MST Days (L1210 Leukemia [2]; 20 mg/kg ip, vehicle Saline): 7.0 days | Effect MST % T/C (L1210 Leukemia [2]; 40 mg/kg ip, vehicle H2O): 129 % T/C | MST Days (L1210 Leukemia [2]; 40 mg/kg ip, vehicle H2O): 9.0 days | Effect MST % T/C (L1210 Leukemia [2]; 40 mg/kg ip, vehicle Saline): 114 % T/C | MST Days (L1210 Leukemia [2]; 40 mg/kg ip, vehicle Saline): 8.0 days | Effect MST % T/C (L1210 Leukemia [2]; 60 mg/kg ip, vehicle H2O): 143 % T/C | MST Days (L1210 Leukemia [2]; 60 mg/kg ip, vehicle H2O): 10.0 days | Effect MST % T/C (L1210 Leukemia [2]; 60 mg/kg ip, vehicle Saline): 114 % T/C | MST Days (L1210 Leukemia [2]; 60 mg/kg ip, vehicle Saline): 8.0 days | Effect MST % T/C (L1210 Leukemia [2]; 80 mg/kg ip, vehicle H2O): 143 % T/C | MST Days (L1210 Leukemia [2]; 80 mg/kg ip, vehicle H2O): 10.0 days | Effect MST % T/C (L1210 Leukemia [2]; 80 mg/kg ip, vehicle Saline): 143 % T/C | MST Days (L1210 Leukemia [2]; 80 mg/kg ip, vehicle Saline): 10.0 days | Effect MST % T/C (L1210 Leukemia [2]; 100 mg/kg ip, vehicle H2O): 143 % T/C | MST Days (L1210 Leukemia [2]; 100 mg/kg ip, vehicle H2O): 10.0 days | Effect MST % T/C (L1210 Leukemia [2]; 100 mg/kg ip, vehicle Saline): 129 % T/C | MST Days (L1210 Leukemia [2]; 100 mg/kg ip, vehicle Saline): 9.0 days | Maximum increase in median lifespan (T/C) (L1210 Leukemia [2]; single dose ip, saline and water as vehicles): 143% | Solubility in H2O at 22-25°C [3]: > 100 mg/mL | Average Weight Change (B16 Melanoma [4]; 2 mg/kg/day ip): -1.5 g | Effect MST % T/C (B16 Melanoma [4]; 2 mg/kg/day ip): 160 % T/C | MST Days (B16 Melanoma [4]; 2 mg/kg/day ip): 33.0 days | Average Weight Change (B16 Melanoma [4]; 4 mg/kg/day ip): -2.8 g | Effect MST % T/C (B16 Melanoma [4]; 4 mg/kg/day ip): 168 % T/C | MST Days (B16 Melanoma [4]; 4 mg/kg/day ip): 34.5 days | Average Weight Change (B16 Melanoma [4]; 8 mg/kg/day ip): -3.2 g | Effect MST % T/C (B16 Melanoma [4]; 8 mg/kg/day ip): 163 % T/C | Average Weight Change (B16 Melanoma [4]; 16 mg/kg/day ip): -2.9 g | Effect MST % T/C (B16 Melanoma [4]; 16 mg/kg/day ip): 185 % T/C | MST Days (B16 Melanoma [4]; 16 mg/kg/day ip): 38.0 days | Survivors Day 10 (60) (B16 Melanoma [4]; Day 10, 8 mg/kg/day ip): 9/10 | Survivors Day 10 (60) (B16 Melanoma [4]; Day 60 (figure in parentheses), 16 mg/kg/day ip): 1 | Effect MST % T/C (L1210 Leukemia [5]; 4 mg/kg/inj ip, qd 1→9): 100 % T/C | MST Days (L1210 Leukemia [5]; 4 mg/kg/inj ip, qd 1→9): 7.0 days | Effect MST % T/C (L1210 Leukemia [5]; 8 mg/kg/inj ip, qd 1→9): 114 % T/C | MST Days (L1210 Leukemia [5]; 8 mg/kg/inj ip, qd 1→9): 8.0 days | Effect MST % T/C (L1210 Leukemia [5]; 16 mg/kg/inj ip, qd 1→9): 157 % T/C | MST Days (L1210 Leukemia [5]; 16 mg/kg/inj ip, qd 1→9): 11.0 days | Effect MST % T/C (L1210 Leukemia [5]; 20 mg/kg/inj iv, d.1, 5&9): 100 % T/C | MST Days (L1210 Leukemia [5]; 20 mg/kg/inj iv, d.1, 5&9): 7.0 days | Effect MST % T/C (L1210 Leukemia [5]; 24 mg/kg/inj ip, qd 1→9): 207 % T/C | MST Days (L1210 Leukemia [5]; 24 mg/kg/inj ip, qd 1→9): 14.5 days | Effect MST % T/C (L1210 Leukemia [5]; 40 mg/kg/inj ip, d.1): 114 % T/C | MST Days (L1210 Leukemia [5]; 40 mg/kg/inj ip, d.1): 8.0 days | Effect MST % T/C (L1210 Leukemia [5]; 40 mg/kg/inj iv, d.1): 100 % T/C | MST Days (L1210 Leukemia [5]; 40 mg/kg/inj iv, d.1): 7.0 days | Effect MST % T/C (L1210 Leukemia [5]; 40 mg/kg/inj iv, d.1, 5&9): 107 % T/C | MST Days (L1210 Leukemia [5]; 40 mg/kg/inj iv, d.1, 5&9): 7.5 days | Effect MST % T/C (L1210 Leukemia [5]; 60 mg/kg/inj ip, d.1): 121 % T/C | MST Days (L1210 Leukemia [5]; 60 mg/kg/inj ip, d.1): 8.5 days | Effect MST % T/C (L1210 Leukemia [5]; 60 mg/kg/inj iv, d.1): 100 % T/C | MST Days (L1210 Leukemia [5]; 60 mg/kg/inj iv, d.1): 7.0 days | Effect MST % T/C (L1210 Leukemia [5]; 60 mg/kg/inj iv, d.1, 5&9): 143 % T/C | MST Days (L1210 Leukemia [5]; 60 mg/kg/inj iv, d.1, 5&9): 10.0 days | Effect MST % T/C (L1210 Leukemia [5]; 80 mg/kg/inj iv, d.1, 5&9): 100 % T/C | MST Days (L1210 Leukemia [5]; 80 mg/kg/inj iv, d.1, 5&9): 7.0 days | Effect MST % T/C (L1210 Leukemia [5]; 90 mg/kg/inj ip, d.1): 143 % T/C | MST Days (L1210 Leukemia [5]; 90 mg/kg/inj ip, d.1): 10.0 days | Effect MST % T/C (L1210 Leukemia [5]; 90 mg/kg/inj iv, d.1): 107 % T/C | MST Days (L1210 Leukemia [5]; 90 mg/kg/inj iv, d.1): 7.5 days | Effect MST % T/C (L1210 Leukemia [5]; 120 mg/kg/inj ip, d.1): 136 % T/C | MST Days (L1210 Leukemia [5]; 120 mg/kg/inj ip, d.1): 9.5 days | Effect MST % T/C (L1210 Leukemia [5]; 120 mg/kg/inj iv, d.1): 100 % T/C | MST Days (L1210 Leukemia [5]; 120 mg/kg/inj iv, d.1): 7.0 days | maximum T/C (L1210 Leukemia [5]; iv, multi-dose regimen): 143% | maximum T/C (L1210 Leukemia [5]; multi-dose therapy ip (qd 1→9)): 207-214% | maximum T/C (L1210 Leukemia [5]; single ip doses, ip L1210): 143% | Effect MST %TC (Lewis Lung Carcinoma; 4 mg/kg/inj ip, qd 5→13): 120 %TC | MST Days (Lewis Lung Carcinoma; 4 mg/kg/inj ip, qd 5→13): 15.0 days | Effect MST %TC (Lewis Lung Carcinoma; 8 mg/kg/inj ip, qd 5→13): 140 %TC | MST Days (Lewis Lung Carcinoma; 8 mg/kg/inj ip, qd 5→13): 17.5 days | Effect MST %TC (Lewis Lung Carcinoma; 12 mg/kg/inj ip, qd 5→13): 148 %TC | MST Days (Lewis Lung Carcinoma; 12 mg/kg/inj ip, qd 5→13): 18.5 days | Effect MST %TC (Lewis Lung Carcinoma; 16 mg/kg/inj ip, qd 5→13): 160 %TC | MST Days (Lewis Lung Carcinoma; 16 mg/kg/inj ip, qd 5→13): 20.0 days | Effect MST %TC (Lewis Lung Carcinoma; 20 mg/kg/inj ip, d. 5,9&13): 124 %TC | MST Days (Lewis Lung Carcinoma; 20 mg/kg/inj ip, d. 5,9&13): 15.5 days | Effect MST %TC (Lewis Lung Carcinoma; 20 mg/kg/inj iv, d. 5,9&13): 100 %TC | MST Days (Lewis Lung Carcinoma; 20 mg/kg/inj iv, d. 5,9&13): 12.5 days | Effect MST %TC (Lewis Lung Carcinoma; 40 mg/kg/inj ip, d. 5,9&13): 148 %TC | MST Days (Lewis Lung Carcinoma; 40 mg/kg/inj ip, d. 5,9&13): 18.5 days | Effect MST %TC (Lewis Lung Carcinoma; 40 mg/kg/inj iv, d. 5,9&13): 108 %TC | MST Days (Lewis Lung Carcinoma; 40 mg/kg/inj iv, d. 5,9&13): 13.5 days | Effect MST %TC (Lewis Lung Carcinoma; 60 mg/kg/inj ip, d. 5,9&13): 196 %TC | MST Days (Lewis Lung Carcinoma; 60 mg/kg/inj ip, d. 5,9&13): 24.5 days | Effect MST %TC (Lewis Lung Carcinoma; 60 mg/kg/inj iv, d. 5,9&13): 132 %TC | MST Days (Lewis Lung Carcinoma; 60 mg/kg/inj iv, d. 5,9&13): 16.5 days | Effect MST %TC (Lewis Lung Carcinoma; 80 mg/kg/inj ip, d. 5,9&13): 268 %TC | MST Days (Lewis Lung Carcinoma; 80 mg/kg/inj ip, d. 5,9&13): 33.5 days | Effect MST %TC (Lewis Lung Carcinoma; 80 mg/kg/inj iv, d. 5,9&13): 148 %TC | MST Days (Lewis Lung Carcinoma; 80 mg/kg/inj iv, d. 5,9&13): 18.5 days | long-term survivors (day 48) (Lewis Lung Carcinoma; given ip, at maximum T/C): 2 to 6 | maximum T/C (Lewis Lung Carcinoma; given ip, therapy from day 5): 268% | T/C (Lewis Lung Carcinoma; given iv, therapy from day 5): 148%
